Laboratory results reported in ChEMBL document CHEMBL3991601, “The target landscape of clinical kinase drugs” (Science, 2017).
Activity calls are given as the source filed them. For most assays here, no stated cut-off is given here; in the data, actives have a measured Kd and inactives only a lower limit.

Columns and labels:
[1] = biological target: Serine/threonine-protein kinase 16 (Homo sapiens, UniProt O75716)
Rab-like protein 3 = biological target: T1, Rab-like protein 3 (Homo sapiens, UniProt Q5HYI8)
T1 sequence (Q5HYI8 whole entry): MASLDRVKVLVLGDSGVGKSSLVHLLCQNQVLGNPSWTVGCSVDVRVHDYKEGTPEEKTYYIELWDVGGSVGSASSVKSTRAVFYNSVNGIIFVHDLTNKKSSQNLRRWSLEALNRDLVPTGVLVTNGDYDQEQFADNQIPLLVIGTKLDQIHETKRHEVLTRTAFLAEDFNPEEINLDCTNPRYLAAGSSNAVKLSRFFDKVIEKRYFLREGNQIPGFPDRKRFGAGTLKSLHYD

[2] = biological target: Protein kinase C alpha type (Homo sapiens, UniProt P17252)
[3] = biological target: T2, Serine/threonine-protein kinase Chk1 (Homo sapiens, UniProt O14757)
T2 sequence (O14757 whole entry): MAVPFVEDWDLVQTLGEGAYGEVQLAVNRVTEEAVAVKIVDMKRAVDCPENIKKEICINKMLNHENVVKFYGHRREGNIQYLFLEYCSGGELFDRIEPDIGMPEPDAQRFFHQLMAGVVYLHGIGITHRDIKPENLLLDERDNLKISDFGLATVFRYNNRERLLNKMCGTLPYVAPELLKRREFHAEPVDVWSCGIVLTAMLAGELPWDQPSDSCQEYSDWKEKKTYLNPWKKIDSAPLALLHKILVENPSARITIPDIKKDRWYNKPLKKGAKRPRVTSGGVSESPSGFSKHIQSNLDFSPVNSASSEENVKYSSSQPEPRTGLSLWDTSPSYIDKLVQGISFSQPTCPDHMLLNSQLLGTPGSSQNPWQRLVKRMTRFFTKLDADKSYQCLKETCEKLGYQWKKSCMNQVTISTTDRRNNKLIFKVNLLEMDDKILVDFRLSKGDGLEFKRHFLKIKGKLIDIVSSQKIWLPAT

[4] = biological target: cAMP-dependent protein kinase catalytic subunit gamma (Homo sapiens, UniProt P22612)
ADP/ATP translocase 2 = biological target: T3, ADP/ATP translocase 2 (Homo sapiens, UniProt P05141)
T3 sequence (P05141 whole entry): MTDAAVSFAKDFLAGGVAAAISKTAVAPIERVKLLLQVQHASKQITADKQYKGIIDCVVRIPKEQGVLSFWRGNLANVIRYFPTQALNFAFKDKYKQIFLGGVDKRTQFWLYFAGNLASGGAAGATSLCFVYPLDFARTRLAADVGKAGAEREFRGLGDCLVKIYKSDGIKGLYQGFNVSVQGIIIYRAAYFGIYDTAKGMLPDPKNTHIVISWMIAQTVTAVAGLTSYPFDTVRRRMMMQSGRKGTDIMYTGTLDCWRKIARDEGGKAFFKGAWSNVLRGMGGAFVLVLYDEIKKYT

[5] = biological target: T4, Serine/threonine-protein kinase PLK4 (Homo sapiens, UniProt O00444)
T4 sequence (O00444 whole entry): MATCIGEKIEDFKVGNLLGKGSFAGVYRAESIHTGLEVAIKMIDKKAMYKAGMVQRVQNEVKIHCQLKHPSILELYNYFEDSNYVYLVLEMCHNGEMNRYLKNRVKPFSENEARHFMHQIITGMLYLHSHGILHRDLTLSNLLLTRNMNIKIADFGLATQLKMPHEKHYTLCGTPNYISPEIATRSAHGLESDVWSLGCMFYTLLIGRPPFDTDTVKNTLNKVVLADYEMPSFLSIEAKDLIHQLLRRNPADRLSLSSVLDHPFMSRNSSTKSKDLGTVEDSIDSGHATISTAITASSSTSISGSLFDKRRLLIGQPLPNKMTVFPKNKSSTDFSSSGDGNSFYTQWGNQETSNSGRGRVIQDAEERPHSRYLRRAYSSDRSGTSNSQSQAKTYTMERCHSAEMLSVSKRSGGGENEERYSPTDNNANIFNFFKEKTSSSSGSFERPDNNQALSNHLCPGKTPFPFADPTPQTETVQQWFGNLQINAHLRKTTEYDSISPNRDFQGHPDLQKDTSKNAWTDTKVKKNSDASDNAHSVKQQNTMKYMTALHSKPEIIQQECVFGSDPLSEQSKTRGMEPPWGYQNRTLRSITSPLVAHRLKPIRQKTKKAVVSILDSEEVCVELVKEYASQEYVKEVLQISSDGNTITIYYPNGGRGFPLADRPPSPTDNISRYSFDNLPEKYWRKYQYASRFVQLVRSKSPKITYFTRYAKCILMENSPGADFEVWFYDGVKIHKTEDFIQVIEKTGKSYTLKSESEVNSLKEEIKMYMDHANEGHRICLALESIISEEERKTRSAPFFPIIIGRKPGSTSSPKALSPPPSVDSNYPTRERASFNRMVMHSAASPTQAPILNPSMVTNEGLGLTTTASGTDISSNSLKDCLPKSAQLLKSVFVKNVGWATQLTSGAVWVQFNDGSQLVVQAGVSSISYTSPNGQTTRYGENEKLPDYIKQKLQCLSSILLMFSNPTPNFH

[6] = biological target: T5, Serine/threonine-protein kinase 3 (Homo sapiens, UniProt Q13188)
T5 sequence (Q13188 whole entry): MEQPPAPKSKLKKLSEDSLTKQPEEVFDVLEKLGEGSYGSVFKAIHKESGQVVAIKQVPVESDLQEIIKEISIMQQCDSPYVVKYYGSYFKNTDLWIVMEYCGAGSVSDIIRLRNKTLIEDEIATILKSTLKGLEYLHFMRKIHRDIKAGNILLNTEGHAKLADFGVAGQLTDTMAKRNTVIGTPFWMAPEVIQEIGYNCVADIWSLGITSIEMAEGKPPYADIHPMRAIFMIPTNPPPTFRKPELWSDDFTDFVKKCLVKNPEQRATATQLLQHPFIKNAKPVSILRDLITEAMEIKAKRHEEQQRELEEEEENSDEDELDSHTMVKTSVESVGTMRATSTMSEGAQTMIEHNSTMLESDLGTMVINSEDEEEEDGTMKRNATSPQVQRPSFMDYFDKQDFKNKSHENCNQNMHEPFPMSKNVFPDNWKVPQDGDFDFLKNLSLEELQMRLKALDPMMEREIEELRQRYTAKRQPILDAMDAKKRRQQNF

[7] = biological target: Tyrosine-protein kinase BTK (Homo sapiens, UniProt Q06187)
Chain of Tyrosine-protein kinase BTK (Q06187 whole entry): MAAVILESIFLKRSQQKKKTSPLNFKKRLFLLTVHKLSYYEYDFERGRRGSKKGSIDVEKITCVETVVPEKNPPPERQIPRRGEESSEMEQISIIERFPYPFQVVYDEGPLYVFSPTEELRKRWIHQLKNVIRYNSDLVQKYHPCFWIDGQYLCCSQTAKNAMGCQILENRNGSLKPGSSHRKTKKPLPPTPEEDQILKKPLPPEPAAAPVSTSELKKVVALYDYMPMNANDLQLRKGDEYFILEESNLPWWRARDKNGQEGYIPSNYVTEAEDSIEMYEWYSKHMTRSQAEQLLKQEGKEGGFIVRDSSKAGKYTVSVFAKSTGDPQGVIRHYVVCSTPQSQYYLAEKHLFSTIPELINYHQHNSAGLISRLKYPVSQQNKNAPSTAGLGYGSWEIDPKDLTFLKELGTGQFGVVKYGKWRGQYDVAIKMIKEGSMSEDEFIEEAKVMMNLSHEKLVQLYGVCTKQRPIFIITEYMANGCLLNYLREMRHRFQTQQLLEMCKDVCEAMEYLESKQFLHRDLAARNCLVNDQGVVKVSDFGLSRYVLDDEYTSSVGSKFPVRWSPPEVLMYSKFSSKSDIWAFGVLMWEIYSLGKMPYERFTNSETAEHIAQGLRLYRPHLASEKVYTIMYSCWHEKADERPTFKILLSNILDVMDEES

Chain of cAMP-dependent protein kinase catalytic subunit gamma (P22612 whole entry): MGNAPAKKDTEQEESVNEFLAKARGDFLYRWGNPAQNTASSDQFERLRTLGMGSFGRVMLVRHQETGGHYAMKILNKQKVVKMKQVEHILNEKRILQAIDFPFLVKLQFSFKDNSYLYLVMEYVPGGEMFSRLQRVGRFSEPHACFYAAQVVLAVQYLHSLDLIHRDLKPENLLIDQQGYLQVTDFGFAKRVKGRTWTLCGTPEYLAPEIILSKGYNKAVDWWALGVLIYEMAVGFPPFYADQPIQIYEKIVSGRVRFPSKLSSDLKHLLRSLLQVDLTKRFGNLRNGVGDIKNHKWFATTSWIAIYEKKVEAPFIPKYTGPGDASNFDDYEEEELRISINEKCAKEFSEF
Chain of Serine/threonine-protein kinase 16 (O75716 whole entry): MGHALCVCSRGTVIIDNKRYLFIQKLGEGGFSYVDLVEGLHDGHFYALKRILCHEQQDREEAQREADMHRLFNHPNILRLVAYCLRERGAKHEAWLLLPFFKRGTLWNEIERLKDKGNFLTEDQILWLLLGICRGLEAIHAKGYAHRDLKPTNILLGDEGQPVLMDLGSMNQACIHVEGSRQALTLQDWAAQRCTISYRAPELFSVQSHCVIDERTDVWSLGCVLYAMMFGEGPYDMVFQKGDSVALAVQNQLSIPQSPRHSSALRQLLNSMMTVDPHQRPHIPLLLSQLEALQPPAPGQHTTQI

| SMILES | Kd [1] | Kd (Rab-like protein 3) | Kd [2] | Kd [3] | Kd [4] | Kd (ADP/ATP translocase 2) | Kd [5] | Kd [6] | Kd [7] |
| --- | --- | --- | --- | --- | --- | --- | --- | --- | --- |
| COc1cc(N2CCC(N3CCN(C)CC3)CC2)ccc1Nc1ncnc(Nc2ccccc2S(=O)(=O)C(C)C)n1 [ASP-3026] | > 30 µM (inactive) | > 30 µM (inactive) | > 30 µM (inactive) | > 30 µM (inactive) | > 30 µM (inactive) | > 30 µM (inactive) | 0.07 µM (active) | > 30 µM (inactive) | 0.494 µM (active) |
| CNC(=O)c1ccc(-c2cnc3ncc(Cc4ccc5ncccc5c4)n3n2)cc1F [CAPMATINIB] | > 30 µM (inactive) | > 30 µM (inactive) | > 30 µM (inactive) | > 30 µM (inactive) | > 30 µM (inactive) | > 30 µM (inactive) | > 30 µM (inactive) | > 30 µM (inactive) | > 30 µM (inactive) |
| Cc1cc2c(F)c(Oc3ncnn4cc(OC[C@@H](C)OC(=O)[C@H](C)N)c(C)c34)ccc2[nH]1 [BRIVANIB ALANINATE] | > 30 µM (inactive) | > 30 µM (inactive) | > 30 µM (inactive) | > 30 µM (inactive) | > 30 µM (inactive) | > 30 µM (inactive) | > 30 µM (inactive) | > 30 µM (inactive) | > 30 µM (inactive) |
| COc1cc(OC)c(/C=C/S(=O)(=O)Cc2ccc(OC)c(NCC(=O)O)c2)c(OC)c1 [RIGOSERTIB] | > 30 µM (inactive) | > 30 µM (inactive) | > 30 µM (inactive) | > 30 µM (inactive) | > 30 µM (inactive) | > 30 µM (inactive) | > 30 µM (inactive) | > 30 µM (inactive) | > 30 µM (inactive) |
| C=CC(=O)N1CCC(Oc2cc3c(Nc4ccc(Cl)c(Cl)c4F)ncnc3cc2OC)CC1 [POZIOTINIB] | > 30 µM (inactive) | > 30 µM (inactive) | > 30 µM (inactive) | > 30 µM (inactive) | > 30 µM (inactive) | > 30 µM (inactive) | > 30 µM (inactive) | > 30 µM (inactive) | 0.003 µM (active) |
| Cc1ccc(-n2nc(C(C)(C)C)cc2NC(=O)NCc2cc(F)ccc2Oc2ccc3c(cnn3CCO)c2)cc1 [PEXMETINIB] | > 30 µM (inactive) | > 30 µM (inactive) | > 30 µM (inactive) | > 30 µM (inactive) | > 30 µM (inactive) | > 30 µM (inactive) | > 30 µM (inactive) | > 30 µM (inactive) | > 30 µM (inactive) |
| Cn1cc(-c2ccc(F)c(C(F)(F)F)c2)nc1C1CCN(c2ncnc3[nH]ncc23)CC1 [LY-2584702] | > 30 µM (inactive) | > 30 µM (inactive) | > 30 µM (inactive) | > 30 µM (inactive) | > 30 µM (inactive) | > 30 µM (inactive) | > 30 µM (inactive) | > 30 µM (inactive) | > 30 µM (inactive) |
| CC[C@H](Nc1ncnc2[nH]cnc12)c1nc2cccc(F)c2c(=O)n1-c1ccccc1 [IDELALISIB] | > 30 µM (inactive) | > 30 µM (inactive) | > 30 µM (inactive) | > 30 µM (inactive) | > 30 µM (inactive) | > 30 µM (inactive) | > 30 µM (inactive) | > 30 µM (inactive) | > 30 µM (inactive) |
| O=C1NC(=O)/C(=C/c2ccc3nccc(-c4ccncc4)c3c2)S1 [GSK-1059615] | > 30 µM (inactive) | > 30 µM (inactive) | > 30 µM (inactive) | > 30 µM (inactive) | > 30 µM (inactive) | > 30 µM (inactive) | > 30 µM (inactive) | > 30 µM (inactive) | > 30 µM (inactive) |
| CNC(=O)c1cc(Oc2ccc(NC(=O)Nc3ccc(Cl)c(C(F)(F)F)c3)c(F)c2)ccn1 [REGORAFENIB] | > 30 µM (inactive) | > 30 µM (inactive) | > 30 µM (inactive) | > 30 µM (inactive) | > 30 µM (inactive) | > 30 µM (inactive) | > 30 µM (inactive) | > 30 µM (inactive) | > 30 µM (inactive) |
| CN1N=C(N)c2cn([C@@H]3O[C@H](COP(=O)(O)O)[C@@H](O)[C@H]3O)c3ncnc1c23 [TRICIRIBINE PHOSPHATE] | > 30 µM (inactive) | > 30 µM (inactive) | > 30 µM (inactive) | > 30 µM (inactive) | > 30 µM (inactive) | > 30 µM (inactive) | > 30 µM (inactive) | > 30 µM (inactive) | > 30 µM (inactive) |
| CN1CCC(CNc2ccc3ncc(-c4cccc(OC(F)(F)F)c4)n3n2)CC1 [SGI-1776] | > 30 µM (inactive) | > 30 µM (inactive) | > 30 µM (inactive) | > 30 µM (inactive) | > 30 µM (inactive) | > 30 µM (inactive) | > 30 µM (inactive) | > 30 µM (inactive) | > 30 µM (inactive) |
| CC(C)Nc1cc(-c2c[nH]c(C(=O)N[C@H](CO)c3cccc(Cl)c3)c2)c(Cl)cn1 [ULIXERTINIB] | > 30 µM (inactive) | > 30 µM (inactive) | > 30 µM (inactive) | > 30 µM (inactive) | > 30 µM (inactive) | > 30 µM (inactive) | > 30 µM (inactive) | > 30 µM (inactive) | > 30 µM (inactive) |
| CN1CC[C@@H](c2c(O)cc(O)c3c(=O)cc(-c4ccccc4Cl)oc23)[C@@H]1CO | > 30 µM (inactive) | > 30 µM (inactive) | > 30 µM (inactive) | > 30 µM (inactive) | > 30 µM (inactive) | > 30 µM (inactive) | > 30 µM (inactive) | > 30 µM (inactive) | > 30 µM (inactive) |
| Cc1ccc(S(=O)(=O)Nc2nc3ccccc3nc2Nc2ccc3nsnc3c2)cc1 | > 30 µM (inactive) | > 30 µM (inactive) | > 30 µM (inactive) | > 30 µM (inactive) | > 30 µM (inactive) | > 30 µM (inactive) | > 30 µM (inactive) | > 30 µM (inactive) | > 30 µM (inactive) |
